From the NIST ThermoML archive (doi:10.1021/je500205z)
Numbers after ± are expanded uncertainties. Values belong to the compound of their own block, whether it stands above or below them.

What was measured:
[1] = Maximal bubble pressure
[2] = an = ratio of the nth substance listed; details: 293.15 K, Maximal bubble pressure

- surface tension liquid-gas ([1]; 293.15 K): 66.75 ± 0.77 mN/m
- surface tension liquid-gas ([1]; 298.15 K): 63.9 ± 0.74 mN/m
- surface tension liquid-gas ([1]; 303.15 K): 61.18 ± 0.71 mN/m
- surface tension liquid-gas ([1]; 308.15 K): 58.46 ± 0.68 mN/m
- surface tension liquid-gas ([1]; 313.15 K): 55.89 ± 0.65 mN/m
- surface tension liquid-gas ([1]; 318.15 K): 53.02 ± 0.62 mN/m
- surface tension liquid-gas ([1]; 323.15 K): 50.55 ± 0.59 mN/m
- surface tension liquid-gas ([1]; 328.15 K): 48.14 ± 0.57 mN/m
- surface tension liquid-gas ([1]; 333.15 K): 45.54 ± 0.54 mN/m
Structure (SMILES): C=Cn1cc[n+](C(C)C(=O)OCC)c1.[Cl-] (configuration not stated)

Structure (SMILES): C=C[n+]1ccn(CCCCCCCCCC)c1.[Br-] [1-decyl-3-ethenylimidazolium bromide]
- surface tension liquid-gas ([1]; 293.15 K): 53.48 ± 0.63 mN/m
- surface tension liquid-gas ([1]; 298.15 K): 50.63 ± 0.6 mN/m
- surface tension liquid-gas ([1]; 303.15 K): 47.76 ± 0.56 mN/m
- surface tension liquid-gas ([1]; 308.15 K): 44.56 ± 0.53 mN/m
- surface tension liquid-gas ([1]; 313.15 K): 41.8 ± 0.5 mN/m
- surface tension liquid-gas ([1]; 318.15 K): 39.03 ± 0.47 mN/m
- surface tension liquid-gas ([1]; 323.15 K): 36.2 ± 0.44 mN/m
- surface tension liquid-gas ([1]; 328.15 K): 33.77 ± 0.41 mN/m
- surface tension liquid-gas ([1]; 333.15 K): 32.04 ± 0.39 mN/m

Structure (SMILES): C=C[n+]1ccn(CCCCCCCCCC)c1.[Br-] [1-decyl-3-ethenylimidazolium bromide] + CC(C)=O
- surface tension liquid-gas ([2]; a1 = 0.5403): 23.39 ± 0.38 mN/m

Structure (SMILES): C=C[n+]1ccn(CCCCCCCCCC)c1.[Br-] [1-decyl-3-ethenylimidazolium bromide] + CCO
- surface tension liquid-gas ([2]; a1 = 1.255): 22.27 ± 0.36 mN/m

Structure (SMILES): C=C[n+]1ccn(CCCCCCCCCC)c1.[Br-] [1-decyl-3-ethenylimidazolium bromide] + ClC(Cl)Cl
- surface tension liquid-gas ([2]; a1 = 0.7667): 27 ± 0.43 mN/m

Structure (SMILES): C=C[n+]1ccn(CCCCCCCCCC)c1.[Br-] [1-decyl-3-ethenylimidazolium bromide] + O
- surface tension liquid-gas ([2]; a1 = 3.263): 35.27 ± 0.37 mN/m

Structure (SMILES): C=C[n+]1ccn(CCCCCCCCCC)c1.[Br-] [1-decyl-3-ethenylimidazolium bromide] + c1ccccc1
- surface tension liquid-gas ([2]; a1 = 0.1035): 29.08 ± 0.46 mN/m

Structure (SMILES): C=Cn1cc[n+](CCCCCCCC)c1.[Br-] [1-ethenyl-3-octylimidazolium bromide]
- surface tension liquid-gas ([1]; 293.15 K): 59.74 ± 0.7 mN/m
- surface tension liquid-gas ([1]; 298.15 K): 56.82 ± 0.66 mN/m
- surface tension liquid-gas ([1]; 303.15 K): 54.04 ± 0.63 mN/m
- surface tension liquid-gas ([1]; 308.15 K): 51.22 ± 0.6 mN/m
- surface tension liquid-gas ([1]; 313.15 K): 48.55 ± 0.57 mN/m
- surface tension liquid-gas ([1]; 318.15 K): 45.79 ± 0.54 mN/m
- surface tension liquid-gas ([1]; 323.15 K): 43.18 ± 0.51 mN/m
- surface tension liquid-gas ([1]; 328.15 K): 40.6 ± 0.49 mN/m
- surface tension liquid-gas ([1]; 333.15 K): 38.24 ± 0.46 mN/m

Structure (SMILES): C=Cn1cc[n+](CCCCCCCC)c1.[Br-] [1-ethenyl-3-octylimidazolium bromide] + CC(C)=O
- surface tension liquid-gas ([2]; a1 = 0.5788): 23.94 ± 0.39 mN/m

Structure (SMILES): C=Cn1cc[n+](CCCCCCCC)c1.[Br-] [1-ethenyl-3-octylimidazolium bromide] + CCO
- surface tension liquid-gas ([2]; a1 = 1.497): 23.07 ± 0.37 mN/m

Structure (SMILES): C=Cn1cc[n+](CCCCCCCC)c1.[Br-] [1-ethenyl-3-octylimidazolium bromide] + ClC(Cl)Cl
- surface tension liquid-gas ([2]; a1 = 0.6921): 27.79 ± 0.44 mN/m

Structure (SMILES): C=Cn1cc[n+](CCCCCCCC)c1.[Br-] [1-ethenyl-3-octylimidazolium bromide] + O
- surface tension liquid-gas ([2]; a1 = 4.059): 38.86 ± 0.4 mN/m

Structure (SMILES): C=Cn1cc[n+](CCCCCCCC)c1.[Br-] [1-ethenyl-3-octylimidazolium bromide] + c1ccccc1
- surface tension liquid-gas ([2]; a1 = 0.08467): 29.32 ± 0.46 mN/m

- surface tension liquid-gas ([1]; 303.15 K): 67.08 ± 0.78 mN/m
- surface tension liquid-gas ([1]; 308.15 K): 64.11 ± 0.74 mN/m
- surface tension liquid-gas ([1]; 313.15 K): 61.08 ± 0.71 mN/m
- surface tension liquid-gas ([1]; 318.15 K): 58.28 ± 0.68 mN/m
- surface tension liquid-gas ([1]; 323.15 K): 55.53 ± 0.65 mN/m
- surface tension liquid-gas ([1]; 328.15 K): 53.24 ± 0.62 mN/m
- surface tension liquid-gas ([1]; 333.15 K): 50.59 ± 0.59 mN/m
Structure (SMILES): C=Cn1cc[n+](CCCCC)c1.[Br-] [1-ethenyl-3-pentylimidazolium bromide]

Structure (SMILES): C=Cn1cc[n+](CCCCCC)c1.[Br-] [3-hexyl-1-vinyl-1H-imidazol-3-ium bromide]
- surface tension liquid-gas ([1]; 293.15 K): 62.29 ± 0.72 mN/m
- surface tension liquid-gas ([1]; 298.15 K): 59.52 ± 0.69 mN/m
- surface tension liquid-gas ([1]; 303.15 K): 56.81 ± 0.66 mN/m
- surface tension liquid-gas ([1]; 308.15 K): 53.95 ± 0.63 mN/m
- surface tension liquid-gas ([1]; 313.15 K): 51.15 ± 0.6 mN/m
- surface tension liquid-gas ([1]; 318.15 K): 48.44 ± 0.57 mN/m
- surface tension liquid-gas ([1]; 323.15 K): 45.67 ± 0.54 mN/m
- surface tension liquid-gas ([1]; 328.15 K): 43.01 ± 0.51 mN/m
- surface tension liquid-gas ([1]; 333.15 K): 40.4 ± 0.48 mN/m

Structure (SMILES): C=Cn1cc[n+](CCCCCC)c1.[Br-] [3-hexyl-1-vinyl-1H-imidazol-3-ium bromide] + CC(C)=O
- surface tension liquid-gas ([2]; a1 = 0.6455): 24.3 ± 0.39 mN/m

Structure (SMILES): C=Cn1cc[n+](CCCCCC)c1.[Br-] [3-hexyl-1-vinyl-1H-imidazol-3-ium bromide] + CCO
- surface tension liquid-gas ([2]; a1 = 1.744): 25.16 ± 0.4 mN/m

Structure (SMILES): C=Cn1cc[n+](CCCCCC)c1.[Br-] [3-hexyl-1-vinyl-1H-imidazol-3-ium bromide] + ClC(Cl)Cl
- surface tension liquid-gas ([2]; a1 = 0.5682): 27.94 ± 0.44 mN/m

Structure (SMILES): C=Cn1cc[n+](CCCCCC)c1.[Br-] [3-hexyl-1-vinyl-1H-imidazol-3-ium bromide] + O
- surface tension liquid-gas ([2]; a1 = 5.388): 46.87 ± 0.46 mN/m

Structure (SMILES): C=Cn1cc[n+](CCCCCC)c1.[Br-] [3-hexyl-1-vinyl-1H-imidazol-3-ium bromide] + c1ccccc1
- surface tension liquid-gas ([2]; a1 = 0.02207): 29.6 ± 0.46 mN/m

Structure (SMILES): CC(C)=O [acetone]
- surface tension liquid-gas ([1]; 293.15 K): 23.7 ± 0.43 mN/m

- surface tension liquid-gas ([1]; 293.15 K): 28.18 ± 0.5 mN/m
Structure (SMILES): c1ccccc1 [benzene]

- surface tension liquid-gas ([1]; 293.15 K): 22.27 ± 0.41 mN/m
Structure (SMILES): CCO [ethanol]

- surface tension liquid-gas ([1]; 293.15 K): 27.14 ± 0.48 mN/m
Structure (SMILES): ClC(Cl)Cl [trichloromethane]
